Measured values from patent US10336725B2, “Chemical compounds” (AstraZeneca AB, priority 2014, dated 2019).
Counter-ions that a name gives are not always drawn.

Columns and labels:
Sodium Channel ENaC = target: T1, Sodium Channel ENaC (Homo sapiens, UniProt P37088+P51168+P51170); experiment: Sodium Channel ENaC Ussing Chamber Test (short circuit current); type: cell-based; details: human primary bronchial epithelial cells at air-liquid interface; inhibition of short circuit current; compounds added to the apical side
T1 construct: Human primary bronchial epithelial cells differentiated at air-liquid interface (ALI); host or cells: Human primary bronchial epithelial cells differentiated at air-liquid interface
T1 sequence (P37088 1-669): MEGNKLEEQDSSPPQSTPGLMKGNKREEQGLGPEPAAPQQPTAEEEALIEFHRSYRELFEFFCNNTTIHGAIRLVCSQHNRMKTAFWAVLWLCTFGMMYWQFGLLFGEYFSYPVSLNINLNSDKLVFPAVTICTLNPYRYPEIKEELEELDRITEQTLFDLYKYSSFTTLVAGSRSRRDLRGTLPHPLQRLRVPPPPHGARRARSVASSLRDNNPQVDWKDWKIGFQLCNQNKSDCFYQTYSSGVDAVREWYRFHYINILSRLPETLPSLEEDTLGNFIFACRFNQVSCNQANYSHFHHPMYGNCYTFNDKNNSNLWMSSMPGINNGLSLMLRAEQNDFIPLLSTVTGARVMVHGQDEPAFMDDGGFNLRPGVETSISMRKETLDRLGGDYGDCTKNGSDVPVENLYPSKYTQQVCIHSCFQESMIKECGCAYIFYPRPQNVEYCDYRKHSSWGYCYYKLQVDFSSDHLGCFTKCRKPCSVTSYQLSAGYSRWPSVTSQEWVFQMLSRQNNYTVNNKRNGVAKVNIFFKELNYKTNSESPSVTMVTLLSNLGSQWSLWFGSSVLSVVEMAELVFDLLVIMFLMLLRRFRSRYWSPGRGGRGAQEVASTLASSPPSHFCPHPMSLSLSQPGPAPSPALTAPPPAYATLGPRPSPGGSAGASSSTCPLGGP
T1 sequence (P51168 1-640): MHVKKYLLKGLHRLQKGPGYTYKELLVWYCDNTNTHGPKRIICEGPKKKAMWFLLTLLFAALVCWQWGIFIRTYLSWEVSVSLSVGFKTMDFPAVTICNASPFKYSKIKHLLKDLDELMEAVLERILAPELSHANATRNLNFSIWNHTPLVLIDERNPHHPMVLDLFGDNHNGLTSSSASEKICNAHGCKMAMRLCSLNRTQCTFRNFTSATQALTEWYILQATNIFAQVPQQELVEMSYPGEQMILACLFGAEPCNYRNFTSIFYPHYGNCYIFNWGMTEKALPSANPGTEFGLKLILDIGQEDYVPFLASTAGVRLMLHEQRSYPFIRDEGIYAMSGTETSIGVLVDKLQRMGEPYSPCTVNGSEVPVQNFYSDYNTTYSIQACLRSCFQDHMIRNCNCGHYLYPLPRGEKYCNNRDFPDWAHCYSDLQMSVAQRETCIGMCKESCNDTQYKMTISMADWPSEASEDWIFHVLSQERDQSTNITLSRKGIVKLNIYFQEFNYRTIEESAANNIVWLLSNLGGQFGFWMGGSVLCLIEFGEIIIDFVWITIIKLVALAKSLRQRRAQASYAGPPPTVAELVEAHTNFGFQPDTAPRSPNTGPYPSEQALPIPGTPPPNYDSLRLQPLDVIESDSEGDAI
T1 sequence (P51170 1-649): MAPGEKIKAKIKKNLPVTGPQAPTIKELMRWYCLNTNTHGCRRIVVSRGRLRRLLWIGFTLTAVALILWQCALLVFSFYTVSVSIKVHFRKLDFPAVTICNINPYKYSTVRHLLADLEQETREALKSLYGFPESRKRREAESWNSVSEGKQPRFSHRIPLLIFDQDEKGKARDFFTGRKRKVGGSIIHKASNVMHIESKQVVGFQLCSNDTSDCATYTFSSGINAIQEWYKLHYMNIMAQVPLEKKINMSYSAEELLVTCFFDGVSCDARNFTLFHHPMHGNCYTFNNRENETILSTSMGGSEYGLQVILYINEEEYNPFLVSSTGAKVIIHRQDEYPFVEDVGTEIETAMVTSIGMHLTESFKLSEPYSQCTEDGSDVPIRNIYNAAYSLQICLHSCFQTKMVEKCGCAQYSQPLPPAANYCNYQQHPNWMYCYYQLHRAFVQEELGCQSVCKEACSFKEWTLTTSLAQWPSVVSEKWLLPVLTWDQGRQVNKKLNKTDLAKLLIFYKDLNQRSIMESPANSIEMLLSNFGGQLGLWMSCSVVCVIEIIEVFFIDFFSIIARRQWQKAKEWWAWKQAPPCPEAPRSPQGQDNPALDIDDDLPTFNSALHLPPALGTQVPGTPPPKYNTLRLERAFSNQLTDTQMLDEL
Experimental: Sodium Channel ENaC Ussing Chamber Test
Human primary bronchial epithelial cells differentiated at air-liquid interface (ALI) on snapwell permeable supports (MatTek Corporation, MA, USA, cat no AIR-100-SNP) were maintained at ALI culture in a humidified incubator at 37° C. and 5% CO2. Basolateral medium (MatTek Corporation, MA, USA cat no AIR-100-MM-ASY) was changed every second day. Mucus or liquid formed on the apical side was gently aspirated every second day to maintain viability and performance of the cells.
The transepithelial voltage between the luminal/apical and basolateral membrane were measured in the ussing chamber consisted of vertical, in-house manufactured ussing chambers, DVC-1000 V/C clamps with preamplifiers (World Precision Instruments), electrode kits (EK1, World Precision Instruments), Power Lab with Chart5 software, water bath with external circulation and carbogen gas distribution and regulation system. Electrodes used in the set up were casted manually using 4% agarose in 0.9% sterile NaCl according to the manufacturer's recommendation.
The ussing chambers were assembled with an empty snapwell membrane (Costar 3407) and electrodes contained in Kreb's buffer (SIGMA-ALDRICH cat no K3753) for one hour at 37° C. in presence of 95% oxygen and 5% carbon dioxide. After this equilibration step the system was compensated for fluid resistance and input offset.
The equilibrated chambers were reassembled with a snapwell containing ALI cells and after 20 minutes stabilisation cumulative doses of the compounds were added to the apical side of the membrane. After the final dose 10 μM Benzamil was added to reach maximum.
All test compounds, including the reference compound, were diluted from 10 mM stocks in 100% DMSO and added to opaque 96-well plates (Greiner, Cat No. 651201). Dilution series of 12 doses were prepared in DMSO, starting with 3 μM followed by 10 times dilution steps.
Chart5 for Windows software was used to measure the value of the short circuit current after each compound addition. The data was transferred into Excel and analysed using IDBS XLfit® 5.2 (ID Business Solutions Ltd). The molar concentration of test or reference compound producing 50% inhibition (curve IC50) was derived by fitting data to a 4-parameter logistic function of the form: y=(A+((B−A)/(1+(((10^C)/x)^D))))
A The bottom plateau of the curve, i.e. the final minimum y value
B The top of the plateau of the curve i.e. the final maximum y value
C The log10 x value at a y value of 50%.

normal subjects = details: treatment of normal subjects; cited from earlier work
[1] = tested on: ENaC β-subunit overexpressing transgenic mice; details: administration to the lungs of the mice for 14 days after birth; cited from earlier work

IC50 (Sodium Channel ENaC)	Structure (SMILES)	ASL volume (normal subjects)	MCC rates (normal subjects)	mortality [1]
0.0794 nM	CCCCCCN(CCNC(=O)c1ccc(CCNC[C@H](CNC(=O)c2nc(Cl)c(N)nc2N)Cc2ccccc2C)cc1)C[C@H](O)[C@@H](O)[C@H](O)CO [Example 13, 3,5-diamino-6-chloro-N—((R)-3-((4-((2-(hexyl((2S,3R,4R)-2,3,4,5-tetrahydroxypentyl)amino)ethyl)carbamoyl)phenethyl)amino)-2-(2-methylbenzyl)propyl)pyrazine-2-carboxamide Dihydrochloride]	–	–	–
31.6 nM	CCCCCCN(CCNC(=O)c1ccc(CNC[C@@H](CNC(=O)c2nc(Cl)c(N)nc2N)Cc2ccccc2C)cc1)C[C@H](O)[C@@H](O)[C@H](O)CO [Example 14, 3,5-diamino-6-chloro-N—((S)-3-((4-((2-(hexyl((2S,3R,4R)-2,3,4,5-tetrahydroxypentyl)amino)ethyl)carbamoyl)benzyl)amino)-2-(2-methylbenzyl)propyl)pyrazine-2-carboxamide Acetic Acid]	–	–	–
–	N=C(N)NC(=O)c1nc(Cl)c(N)nc1N [amiloride]	increases	increases	significantly reduced
